Measurements published in ChEMBL document CHEMBL5215001, “Diaporisoindole B Reduces Lipid Accumulation in THP-1 Macrophage Cells via MAPKs and PPARγ-LXRα Pathways and Promotes the Reverse Cholesterol Transport by Upregulating SR-B1 and LDLR in HepG2 Cells” (J Nat Prod, 2022).
Calls of active or inactive are those of the source. The rule behind the calls is not given here.

Tests used:
[1] = tested on: THP-1; assay: Inhibition of foam cells formation in human THP-1 cells assessed as upregulation of SR-B1 mRNA expression at 2.5 to 15 uM by RT-PCR analysis; format: functional, cell-based; conditions: dose 2.5-15 µM
[2] = tested on: HepG2; assay: Induction of reverse cholesterol transport in human HepG2 cells assessed as reduction in PCSK9 protein expression at 2.5 to 15 uM by Western blot analysis; format: functional, cell-based; conditions: dose 2.5-15 µM
[3] = tested on: HepG2; assay: Induction of reverse cholesterol transport in human HepG2 cells assessed as reduction in PCSK9 mRNA expression at 2.5 to 15 uM by qRT-PCR analysis; format: functional, cell-based; conditions: dose 2.5-15 µM
[4] = tested on: HepG2; assay: Inhibition of ox-LDL induced lipid accumulation in human HepG2 cells assessed as reduction in total triglyceride level at 2.5 to 15 uM; format: functional, cell-based; conditions: dose 2.5-15 µM
[5] = tested on: THP-1; assay: Inhibition of ox-LDL uptake in human THP-1 foam cells assessed as downregulation of CD36 expression by measuring reduction in total JNK protein expression at 2.5 to 15 uM by Western blot analysis; format: functional, cell-based; conditions: dose 2.5-15 µM
[6] = tested on: HepG2; assay: Induction of reverse cholesterol transport in human HepG2 cells assessed as upregulation of LDLR protein expression by Western blot analysis; format: functional, cell-based; conditions: dose 2.5-15 µM, DDE = dose-dependent effect
[7] = tested on: HepG2; assay: Reduction in triglyceride level in human HepG2 cells assessed as reduction in FAS protein expression by Western blot analysis; format: functional, cell-based; conditions: dose 2.5-15 µM, DDE = dose-dependent effect
[8] = tested on: THP-1; assay: Inhibition of ox-LDL induced lipid accumulation in human THP-1 cells assessed as reduction oxidized LDL uptake at 2.5 to 15 uM incubated for 4 hrs by Hoechst 33258 dye based confocal microscopic analysis; format: functional, cell-based; conditions: dose 2.5-15 µM
[9] = tested on: THP-1; assay: Induction of lipid efflux in human THP-1 cells assessed as upregulation of PPARgamma protein expression at higher concentrations by Western blot analysis; format: functional, cell-based
[10] = tested on: HepG2; assay: Reduction in cholesterol biosynthesis in human HepG2 cells assessed as reduction in HMGCR mRNA expression at 2.5 to 15 uM by qRT-PCR analysis; format: functional, cell-based; conditions: dose 2.5-15 µM
[11] = tested on: HepG2; assay: Downregulation of SREBP2 mRNA expression in human HepG2 cells at 2.5 to 15 uM by qRT-PCR analysis; format: functional, cell-based; conditions: dose 2.5-15 µM
[12] = tested on: THP-1; assay: Inhibition of ox-LDL uptake in human THP-1 foam cells assessed as downregulation of CD36 expression by measuring reduction in total p38 protein expression at 2.5 to 15 uM by Western blot analysis; format: functional, cell-based; conditions: dose 2.5-15 µM
[13] = tested on: THP-1; assay: Inhibition of ox-LDL induced lipid accumulation in human THP-1 cells assessed as reduction in intracellular lipid droplets at 2.5 to 15 uM by oil red O staining based inverted microscopic analysis; format: functional, cell-based; conditions: dose 2.5-15 µM
[14] = tested on: THP-1; assay: Inhibition of ox-LDL induced lipid accumulation in human THP-1 cells assessed as reduction in total triglyceride level at 2.5 to 15 uM; format: functional, cell-based; conditions: dose 2.5-15 µM
[15] = tested on: THP-1; assay: Inhibition of ox-LDL induced lipid accumulation in human THP-1 cells assessed as increase in cholesterol efflux rate incubated for 24 hrs by liquid scintillation counting analysis; format: functional, cell-based; conditions: dose 2.5-15 µM, DDE = dose-dependent effect
[16] = tested on: THP-1; assay: Inhibition of foam cells formation in human THP-1 cells assessed as upregulation of ABCA1 mRNA expression at 2.5 to 15 uM by RT-PCR analysis; format: functional, cell-based; conditions: dose 2.5-15 µM
[17] = tested on: HepG2; assay: Downregulation of SREBP2 protein expression in human HepG2 cells at 2.5 to 15 uM by Western blot analysis; format: functional, cell-based; conditions: dose 2.5-15 µM
[18] = tested on: THP-1; assay: Inhibition of foam cells formation in human THP-1 cells assessed as reduction in CD36 mRNA expression at 2.5 to 15 uM by RT-PCR analysis; format: functional, cell-based; conditions: dose 2.5-15 µM
[19] = tested on: HepG2; assay: Reduction in triglyceride level in human HepG2 cells assessed as reduction in FAS mRNA expression by qRT-PCR analysis; format: functional, cell-based; conditions: dose 2.5-15 µM, DDE = dose-dependent effect
[20] = tested on: THP-1; assay: Inhibition of foam cells formation in human THP-1 cells assessed as upregulation of ABCA1 protein expression at 2.5 to 15 uM by Western blot analysis; format: functional, cell-based; conditions: dose 2.5-15 µM
[21] = tested on: THP-1; assay: Inhibition of foam cells formation in human THP-1 cells assessed as upregulation of SR-B1 protein expression at 2.5 to 15 uM by Western blot analysis; format: functional, cell-based; conditions: dose 2.5-15 µM
[22] = tested on: THP-1; assay: Inhibition of ox-LDL uptake in human THP-1 foam cells assessed as downregulation of CD36 expression by measuring reduction in MAPK mRNA expression at 2.5 to 15 uM by qRT-PCR analysis; format: functional, cell-based; conditions: dose 2.5-15 µM
[23] = tested on: HepG2; assay: Induction of reverse cholesterol transport in human HepG2 cells assessed as increase in SR-B1 mRNA expression by qRT-PCR analysis; format: functional, cell-based; conditions: dose 2.5-15 µM, DDE = dose-dependent effect
[24] = tested on: HepG2; assay: Inhibition of ox-LDL induced lipid accumulation in human HepG2 cells assessed as reduction in total cholesterol level at 2.5 to 15 uM; format: functional, cell-based; conditions: dose 2.5-15 µM
[25] = tested on: HepG2; assay: Downregulation of SREBP1c mRNA expression in human HepG2 cells at 2.5 to 15 uM by qRT-PCR analysis; format: functional, cell-based; conditions: dose 2.5-15 µM
[26] = tested on: HepG2; assay: Reduction in triglyceride level in human HepG2 cells assessed as reduction in ACC mRNA expression by qRT-PCR analysis; format: functional, cell-based; conditions: dose 2.5-15 µM, DDE = dose-dependent effect
[27] = tested on: THP-1; assay: Inhibition of ox-LDL uptake in human THP-1 foam cells assessed as downregulation of CD36 expression by measuring reduction in pJNK protein expression at 2.5 to 15 uM by Western blot analysis; format: functional, cell-based; conditions: dose 2.5-15 µM
[28] = tested on: THP-1; assay: Inhibition of ox-LDL induced lipid accumulation in human THP-1 cells assessed as reduction in total cholesterol level at 2.5 to 15 uM; format: functional, cell-based; conditions: dose 2.5-15 µM
[29] = tested on: HepG2; assay: Cytotoxicity against human HepG2 cells assessed as inhibition of cell growth at 0 to 15 uM incubated for 24 hrs by CCK-8 assay; format: toxicity, cell-based; conditions: hepg2, 24 h, dose 0-15 µM
[30] = tested on: THP-1; assay: Inhibition of ox-LDL uptake in human THP-1 foam cells assessed as downregulation of CD36 expression by measuring reduction in total ERK protein expression at 2.5 to 15 uM by Western blot analysis; format: functional, cell-based; conditions: dose 2.5-15 µM
[31] = tested on: THP-1; assay: Induction of lipid efflux in human THP-1 cells assessed as upregulation of PPARgamma mRNA expression by qRT-PCR analysis; format: functional, cell-based; conditions: dose 2.5-15 µM, DDE = dose-dependent effect
[32] = tested on: HepG2; assay: Reduction in triglyceride level in human HepG2 cells assessed as reduction in ACC protein expression by Western blot analysis; format: functional, cell-based; conditions: dose 2.5-15 µM, DDE = dose-dependent effect
[33] = tested on: THP-1; assay: Inhibition of ox-LDL uptake in human THP-1 foam cells assessed as downregulation of CD36 expression by measuring reduction in pERK protein expression at 2.5 to 15 uM by Western blot analysis; format: functional, cell-based; conditions: dose 2.5-15 µM
[34] = tested on: HepG2; assay: Induction of reverse cholesterol transport in human HepG2 cells assessed as increase in SR-B1 protein expression by Western blot analysis; format: functional, cell-based; conditions: dose 2.5-15 µM, DDE = dose-dependent effect
[35] = tested on: THP-1; assay: Induction of lipid efflux in human THP-1 cells assessed as upregulation of LXRalpha protein expression at higher concentrations by Western blot analysis; format: functional, cell-based
[36] = tested on: THP-1; assay: Inhibition of foam cells formation in human THP-1 cells assessed as upregulation of ABCG1 protein expression at 2.5 to 15 uM by Western blot analysis; format: functional, cell-based; conditions: dose 2.5-15 µM
[37] = tested on: THP-1; assay: Inhibition of foam cells formation in human THP-1 cells assessed as reduction in CD36 protein expression at 2.5 to 15 uM by Western blot analysis; format: functional, cell-based; conditions: dose 2.5-15 µM
[38] = tested on: THP-1; assay: Cytotoxicity against human THP-1 cells assessed as inhibition of cell growth at 0 to 15 uM incubated for 24 hrs by CCK-8 assay; format: toxicity, cell-based; conditions: thp-1, 24 h, dose 0-15 µM
[39] = tested on: THP-1; assay: Inhibition of ox-LDL uptake in human THP-1 foam cells assessed as downregulation of CD36 expression by measuring reduction in phosphorylated p38 protein expression at 2.5 to 15 uM by Western blot analysis; format: functional, cell-based; conditions: dose 2.5-15 µM
[40] = tested on: HepG2; assay: Downregulation of SREBP1c protein expression in human HepG2 cells at 2.5 to 15 uM by Western blot analysis; format: functional, cell-based; conditions: dose 2.5-15 µM
[41] = tested on: THP-1; assay: Induction of lipid efflux in human THP-1 cells assessed as upregulation of LXRalpha mRNA expression by qRT-PCR analysis; format: functional, cell-based; conditions: dose 2.5-15 µM, DDE = dose-dependent effect

CC(C)=CCc1ccc(O)c2c1[C@H](c1cc(C)cc3c1O[C@H](C(C)(C)O)CO3)NC2=O
inhibition [1]: Active | Activity [2]: Active | Activity [3]: Active | inhibition [4]: Active | inhibition [5]: Active | Activity [6]: Dde | Activity [7]: Dde | inhibition [8]: Active | Activity [9]: Active | Activity [10]: Active | Activity [11]: Active | inhibition [12]: Active | inhibition [13]: Active | inhibition [14]: Active | inhibition [15]: Dde | inhibition [16]: Active | Activity [17]: Active | inhibition [18]: Active | Activity [19]: Dde | inhibition [20]: Active | inhibition [21]: Active | inhibition [22]: Active | Activity [23]: Dde | inhibition [24]: Active | Activity [25]: Active | Activity [26]: Dde | inhibition [27]: Active | inhibition [28]: Active | Activity [29]: Non-Toxic | inhibition [30]: Active | Activity [31]: Dde | Activity [32]: Dde | inhibition [33]: Active | Activity [34]: Dde | Activity [35]: Active | inhibition [36]: Active | inhibition [37]: Active | Activity [38]: Non-Toxic | inhibition [39]: Active | Activity [40]: Active | Activity [41]: Dde
